Source: patent publication US10080714B2, “Peptides and their use in the treatment of hair” (Avon Products, Inc., priority 2015, dated 2018)
Square brackets hold non-standard residues; d marks the D form. Ends that are not written are not given here. Ava = NCCCCC(=O)O

Tests used:
Format in all cases: cell-based, human
[1] = tested on: Hair Germinal Matrix Cells; test: Proliferation of hair matrix cells (BrdU proliferation kit); settings: for Proliferation (%): 24 h treatment, percent change in cell proliferation relative to vehicle control; for Effect on Hair Germinal Matrix Cell proliferation (in words): at the concentrations tested
Protocol: Hair Germinal Matrix Cells (ScienCell, Carlsbad, Calif.) were grown in 96-well tissue culture plate (5000 cells/well) in MSCM medium supplemented with growth factors (ScienCell, Carlsbad, Calif.). Cells were incubated overnight at 37° C. and 5% CO2. Next, media were aspirated and cells were incubated in MSCM medium without growth supplement for 4-6 h, followed by treatment with given concentration of peptides for 24 h. After treatment cells were incubated with BrdU for 4 h and proliferation rate was evaluating using BrdU proliferation kit from Cell Signaling (Danvers, Mass.). The results are summarized in Table 2 below as percent change cell proliferation relative to vehicle control (peptide concentrations provided in parentheses) using the following key: 0: <10%, +:11-20%, ++:21-40%, +++:41-60%, ++++:>60%.

[2] = tested on: Keratin35; test: Keratin 35 mRNA expression in Hair Germinal Matrix Cells (qPCR); settings: for Keratin 35 mRNA expression: 0.0001 wt. % peptide, 48 h, percent change in mRNA expression relative to vehicle control, normalized to GAPDH; for Effect on Keratin 35 mRNA expression (in words): at the concentration tested
Protocol: (§1) Hair Germinal Matrix Cells (ScienCell, Carlsbad, Calif.) were grown in 6-well tissue culture plate (1.5×10^5 cells/well) in MSCM medium supplemented with growth factors (ScienCell, Carlsbad, Calif.). Cells were incubated overnight at 37° C. and 5% CO2. Next day, cells were changed into fresh media and treated with given concentration of peptides for 48 h. After treatment, cells were washed with ice cold PBS, collected into RLT lysis buffer and RNA was extracted using RNeasy Mini Kit (Qiagen, Valencia, Calif.) following manufactures recommendations. 200 ng of RNA was used for cDNA synthesis using High Capactiy cDNA Reverse Transcription Kit (Life Technologies, Carlsbad, Calif.). 1 μL of undiluted cDNA was used per qPCR reaction. Primers used were purchased from Life technologies (Carlsbad, Calif.). Following primers were used: Keratin35 (Hs0060557_g1), KAP8 (Hs00545666_s1), KAP11 (Hs00545667_s1), P-cadherin (Hs00999925_m1). Expression was normalized to GAPDH. The conditions of q-PCR were: an incubation step at 50° C. for 2 minutes and an enzyme activation step at 95° C. for 10minutes; followed by 45 cycles of 95° C. for 30 seconds and 60° C. for 1 minute. CT value was obtained from the software of the Stratagene MX2005P.

[3] = tested on: KAP8; test: KAP8 mRNA expression in Hair Germinal Matrix Cells (qPCR); settings: for KAP 8 mRNA expression: 0.0001 wt. % peptide, 48 h, percent change in mRNA expression relative to vehicle control, normalized to GAPDH; for Effect on Keratin Associated Protein 8 mRNA expression (in words): at the concentration tested
Protocol: as §1

[4] = tested on: KAP11; test: KAP11 mRNA expression in Hair Germinal Matrix Cells (qPCR); settings: for KAP 11 mRNA expression: 0.0001 wt. % peptide, 48 h, percent change in mRNA expression relative to vehicle control, normalized to GAPDH; for Effect on KAP11 mRNA expression (in words): at the concentration tested
Protocol: as §1

[5] = tested on: P-cadherin; test: P-cadherin mRNA expression in Hair Germinal Matrix Cells (qPCR); settings: for P-cadherin mRNA expression: 0.0001 wt. % peptide, 48 h, percent change in mRNA expression relative to vehicle control, normalized to GAPDH; for Effect on levels of desmosomal protein P-cadherin (in words): at the concentration tested
Protocol: as §1

Substance | Proliferation (%) ([1]; 0.00001 wt. % peptide) | Proliferation (%) ([1]; 0.0001 wt. % peptide) | Keratin 35 mRNA expression [2] | Effect on Keratin 35 mRNA expression (in words) [2] | KAP 8 mRNA expression [3] | Effect on Keratin Associated Protein 8 mRNA expression (in words) [3] | KAP 11 mRNA expression [4] | Effect on KAP11 mRNA expression (in words) [4] | P-cadherin mRNA expression [5] | Effect on levels of desmosomal protein P-cadherin (in words) [5] | Effect on Hair Germinal Matrix Cell proliferation (in words) [1]
K-Ava-PVGK: K-Ava-derivative of tripeptide PVG; Ava = amino valeric acid (K[Ava]PVGK) | 0 (0: <10%) | 0 (0: <10%) | +++ (+++: 41-60%) | effective in upregulating | ++++ (++++: >60%) | effective in upregulating | +++ (+++: 41-60%) | effective in upregulating | 0 (0; <10%) |  | 
K-Ava-YNTK: K-Ava-derivative of tripeptide YNT; Ava = amino valeric acid (K[Ava]YNTK) | 0 (0: <10%) | 0 (0: <10%) | 0 (0; <10%) | not effective | 0 (0; <10%) | not effective | 0 (0; <10%) | not effective | +++ (+++: 41-60%) | effect was enhanced | 
PVG: tripeptide of the amino acid sequence PVG | 0 (0: <10%) | + (+:11-20%) | 0 (0; <10%) |  | ++++ (++++: >60%) | effectively increase | 0 (0; <10%) |  | 0 (0; <10%) |  | effectively increase
YNT: tripeptide of the amino acid sequence YNT | 0 (0: <10%) | ++ (++:21-40%) | 0 (0; <10%) |  | ++++ (++++: >60%) | effectively increase | ++++ (++++: >60%) |  | + (+: 11-20%) | effective in boosting | effectively increase
